# Measured values reported in patent publication US9480259B2, “Pyrazolopyrans having herbicidal and pharmaceutical properties” (BASF SE, priority 2012, dated 2016).
# Molecular target: Arabidopsis thaliana SHMT
# Experiment: SHMT activity assay (ED50 SHMT), coupled with N5,N10-CH2-THF dehydrogenase, NADH at 340 nm
# Type: biochemical
# Conditions: Table 2; values given as upper bounds
# In short: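 His-tagged SHMT purified on Ni-NTA. NADH formation followed at 340 nm for 30 min; ED50 from inhibition of initial velocity.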
compound,measurement,value
Cc1n[nH]c2c1C(c1cc(Cl)cc(-c3ccc(C(=O)O)cc3)c1)(C1CCC1)C(C#N)=C(N)O2 (centres unmarked) [Compound 2.483],EC50,< 10 nM
Cc1n[nH]c2c1C(c1cc(C#N)cc(-c3cc(F)c(O)c(F)c3)c1)(C1CCC1)C(C#N)=C(N)O2 (centres unmarked) [Compound 2.484],EC50,< 10 nM
Cc1n[nH]c2c1C(c1ccc(O)c(Cl)c1)(C1CCC1)C(C#N)=C(N)O2 (centres unmarked) [Compound 2.485],EC50,< 10 nM
COc1c(Cl)cc(C2(C3CCC3)C(C#N)=C(N)Oc3[nH]nc(C)c32)cc1C#N (centres unmarked) [Compound 2.487],EC50,< 10 nM
Cc1n[nH]c2c1C(c1cc(Cl)cc(N3CCOCC3)c1)(C1CCC1)C(C#N)=C(N)O2 (centres unmarked) [Compound 2.488],EC50,< 10 nM
Cc1n[nH]c2c1C(c1cc(Cl)cc(NS(=O)(=O)c3ccccc3)c1)(C1CCC1)C(C#N)=C(N)O2 (centres unmarked) [Compound 2.490],EC50,< 10 nM
COc1c(C#N)cc(C2(C3CCC3)C(C#N)=C(N)Oc3[nH]nc(C)c32)cc1C(F)(F)F (centres unmarked) [Compound 2.491],EC50,< 10 nM
COc1c(Br)cc(C2(C3CCC3)C(C#N)=C(N)Oc3[nH]nc(C)c32)cc1C#N (centres unmarked) [Compound 2.492],EC50,< 10 nM
Cc1n[nH]c2c1C(c1cc(Cl)cc(-c3ccc(-c4nnn[nH]4)cc3)c1)(C1CCC1)C(C#N)=C(N)O2 (centres unmarked) [Compound 2.493],EC50,< 10 nM
Cc1n[nH]c2c1C(c1cccc(-c3cccc(C(=O)O)c3)c1)(C1CCC1)C(C#N)=C(N)O2 (centres unmarked) [Compound 2.494],EC50,< 100 nM
Cc1n[nH]c2c1C(c1cccc(-c3ccc(C(=O)O)cc3)c1)(C1CCC1)C(C#N)=C(N)O2 (centres unmarked) [Compound 2.495],EC50,< 10 nM
Cc1n[nH]c2c1C(c1cc(Cl)cc(CCC(=O)O)c1)(C1(F)CC1)C(C#N)=C(N)O2 (centres unmarked) [Compound 2.497],EC50,< 100 nM
Cc1n[nH]c2c1C(c1cc(Cl)cc(CC(=O)O)c1)(C1(F)CC1)C(C#N)=C(N)O2 (centres unmarked) [Compound 2.498],EC50,< 100 nM
Cc1n[nH]c2c1C(c1cc(Cl)cc(CC(=O)O)c1)(C1CCC1)C(C#N)=C(N)O2 (centres unmarked) [Compound 2.499],EC50,< 10 nM
Cc1n[nH]c2c1C(c1cc(Cl)cc(CCC(=O)O)c1)(C1CCC1)C(C#N)=C(N)O2 (centres unmarked) [Compound 2.500],EC50,< 10 nM
Cc1n[nH]c2c1C(c1cc(Cl)cc(C(F)(F)F)c1)(C1(F)COC1)C(C#N)=C(N)O2 (centres unmarked) [Compound 2.502],EC50,< 10 nM
Cc1n[nH]c2c1C(c1cc(Br)cc(OCC(=O)O)c1)(C1(F)CC1)C(C#N)=C(N)O2 (centres unmarked) [Compound 2.503],EC50,< 10000 nM
Cc1n[nH]c2c1C(c1cc(Cl)c(OCC(=O)O)c(Cl)c1)(C1CCC1)C(C#N)=C(N)O2 (centres unmarked) [Compound 2.504],EC50,< 1000 nM
Cc1n[nH]c2c1C(c1cc(Br)cc(OCC(=O)O)c1)(C1CCC1)C(C#N)=C(N)O2 (centres unmarked) [Compound 2.507],EC50,< 10000 nM
Cc1n[nH]c2c1C(c1cc(O)cc(Cl)c1)(C1CCC1)C(C#N)=C(N)O2 (centres unmarked) [Compound 2.508],EC50,< 10000 nM
COC(=O)c1cc(-c2cc(C#N)cc(C3(C4CCC4)C(C#N)=C(N)Oc4[nH]nc(C)c43)c2)ccc1Cl (centres unmarked) [Compound 2.509],EC50,< 10 nM
Cc1n[nH]c2c1C(c1cc(C#N)cc(-c3cccc(C(=O)O)c3)c1)(C1(F)CC1)C(C#N)=C(N)O2 (centres unmarked) [Compound 2.510],EC50,< 10 nM
Cc1n[nH]c2c1C(c1cc(C#N)cc(-c3cccc(C(=O)O)c3)c1)(C1(F)CC1)C(C#N)=C(N)O2 (centres unmarked) [Compound 2.511],EC50,< 10 nM
Cc1n[nH]c2c1C(c1cc(Cl)cc(-c3cccc(C#N)c3)c1)(C1CCC1)C(C#N)=C(N)O2 (centres unmarked) [Compound 2.512],EC50,< 10 nM
COC(=O)c1cc(F)cc(-c2cc(C#N)cc(C3(C4CCC4)C(C#N)=C(N)Oc4[nH]nc(C)c43)c2)c1 (centres unmarked) [Compound 2.513],EC50,< 10 nM
Cc1n[nH]c2c1C(c1cc(Cl)cc(-c3cccc(-c4nnn[nH]4)c3)c1)(C1CCC1)C(C#N)=C(N)O2 (centres unmarked) [Compound 2.515],EC50,< 10 nM
COC(=O)c1cc(Cl)cc(-c2cc(C#N)cc(C3(C4CCC4)C(C#N)=C(N)Oc4[nH]nc(C)c43)c2)c1 (centres unmarked) [Compound 2.517],EC50,< 10 nM
Cc1n[nH]c2c1C(c1cc(C#N)cc(-c3ccc(C(=O)O)cc3)c1)(C(C)C)C(C#N)=C(N)O2 (centres unmarked) [Compound 2.519],EC50,< 10 nM
CCc1n[nH]c2c1C(c1cc(C#N)cc(C#N)c1)(C(C)C)C(C#N)=C(N)O2 (centres unmarked) [Compound 2.520],EC50,< 10 nM
COC(=O)c1ccc(-c2cc(C#N)cc(C3(C4CCC4)C(C#N)=C(N)Oc4[nH]nc(C)c43)c2)cc1OC (centres unmarked) [Compound 2.522],EC50,< 10 nM
COC(=O)CCc1cccc(-c2cc(C#N)cc(C3(C4CCC4)C(C#N)=C(N)Oc4[nH]nc(C)c43)c2)c1 (centres unmarked) [Compound 2.523],EC50,< 10 nM
COC(=O)Cc1cccc(-c2cc(C#N)cc(C3(C4CCC4)C(C#N)=C(N)Oc4[nH]nc(C)c43)c2)c1 (centres unmarked) [Compound 2.524],EC50,< 10 nM
COC(=O)CCc1cccc(-c2cc(C#N)cc(C3(C4CCC4)C(C#N)=C(N)Oc4[nH]nc(C)c43)c2)c1 (centres unmarked) [Compound 2.525],EC50,< 10 nM
COC(=O)Cc1ccc(-c2cc(C#N)cc(C3(C4CCC4)C(C#N)=C(N)Oc4[nH]nc(C)c43)c2)cc1 (centres unmarked) [Compound 2.526],EC50,< 10 nM
CCC1(c2cc(Cl)cc(C#N)c2)C(C#N)=C(N)Oc2[nH]nc(C)c21 (centres unmarked) [Compound 2.529],EC50,< 10 nM
CCCC1(c2cc(C#N)cc(C(F)(F)F)c2)C(C#N)=C(N)Oc2[nH]nc(C)c21 (centres unmarked) [Compound 2.531],EC50,< 10 nM
CCC1(c2cc(Br)cc(C#N)c2)C(C#N)=C(N)Oc2[nH]nc(C)c21 (centres unmarked) [Compound 2.532],EC50,< 10 nM
CCCC1(c2cc(Cl)cc(C#N)c2)C(C#N)=C(N)Oc2[nH]nc(C)c21 (centres unmarked) [Compound 2.533],EC50,< 10 nM
CCCC1(c2cc(Br)cc(C#N)c2)C(C#N)=C(N)Oc2[nH]nc(C)c21 (centres unmarked) [Compound 2.534],EC50,< 10 nM
CCCC1(c2cc(C#N)cc(C#N)c2)C(C#N)=C(N)Oc2[nH]nc(C)c21 (centres unmarked) [Compound 2.535],EC50,< 10 nM
CCOC(=O)COc1ccc(-c2cc(C#N)cc(C3(C4CCC4)C(C#N)=C(N)Oc4[nH]nc(C)c43)c2)cc1 (centres unmarked) [Compound 2.536],EC50,< 10 nM
Cc1n[nH]c2c1C(c1cc(C#N)cc(-c3ccc(OCC(=O)O)cc3)c1)(C1CCC1)C(C#N)=C(N)O2 (centres unmarked) [Compound 2.538],EC50,< 10 nM
Cc1n[nH]c2c1C(c1cc(Cl)cc(CCc3nnn[nH]3)c1)(C1CCC1)C(C#N)=C(N)O2 (centres unmarked) [Compound 2.539],EC50,< 10 nM
Cc1n[nH]c2c1C(c1ccc(CCC(=O)O)c(Cl)c1)(C1CCC1)C(C#N)=C(N)O2 (centres unmarked) [Compound 2.542],EC50,< 100 nM
Cc1n[nH]c2c1C(c1ccc(CCC(=O)O)c(C(F)(F)F)c1)(C1CCC1)C(C#N)=C(N)O2 (centres unmarked) [Compound 2.543],EC50,< 100 nM
Cc1n[nH]c2c1C(c1ccc(CC(=O)O)c(C(F)(F)F)c1)(C1CCC1)C(C#N)=C(N)O2 (centres unmarked) [Compound 2.544],EC50,< 100 nM
Cc1n[nH]c2c1C(c1cc(C#N)cc(-c3cc(F)cc(C(=O)O)c3)c1)(C1CCC1)C(C#N)=C(N)O2 (centres unmarked) [Compound 2.545],EC50,< 10 nM
COC(=O)c1ccc(-c2cc(C#N)cc(C3(C4CCC4)C(C#N)=C(N)Oc4[nH]nc(C)c43)c2)cc1Cl (centres unmarked) [Compound 2.546],EC50,< 100 nM
COc1ccc(-c2cc(C#N)cc(C3(C4CCC4)C(C#N)=C(N)Oc4[nH]nc(C)c43)c2)cc1C(F)(F)F (centres unmarked) [Compound 2.547],EC50,< 10 nM
COC(=O)c1cc(OC)cc(-c2cc(C#N)cc(C3(C4CCC4)C(C#N)=C(N)Oc4[nH]nc(C)c43)c2)c1 (centres unmarked) [Compound 2.548],EC50,< 10 nM
COC(=O)c1cc(C(=O)OC)cc(-c2cc(C#N)cc(C3(C4CCC4)C(C#N)=C(N)Oc4[nH]nc(C)c43)c2)c1 (centres unmarked) [Compound 2.549],EC50,< 100 nM
COC(=O)c1ccc(-c2cc(C#N)cc(C3(C4CCC4)C(C#N)=C(N)Oc4[nH]nc(C)c43)c2)cc1C(=O)OC (centres unmarked) [Compound 2.550],EC50,< 10 nM
COC(=O)c1cc(OC(F)(F)F)cc(-c2cc(C#N)cc(C3(C4CCC4)C(C#N)=C(N)Oc4[nH]nc(C)c43)c2)c1 (centres unmarked) [Compound 2.551],EC50,< 100 nM
COC(=O)c1cc(-c2cc(C#N)cc(C3(C4CCC4)C(C#N)=C(N)Oc4[nH]nc(C)c43)c2)cc(C(F)(F)F)c1 (centres unmarked) [Compound 2.552],EC50,< 100 nM
CC(=O)N(C)c1cc(C#N)cc(C2(C(C)C)C(C#N)=C(N)Oc3[nH]nc(C)c32)c1 (centres unmarked) [Compound 2.553],EC50,< 10 nM
COC(=O)c1cc(-c2cc(C#N)cc(C3(C4CCC4)C(C#N)=C(N)Oc4[nH]nc(C)c43)c2)cc([N+](=O)[O-])c1 (centres unmarked) [Compound 2.554],EC50,< 10 nM
Cc1n[nH]c2c1C(c1cc(Cl)cc(CCC#N)c1)(C1CCC1)C(C#N)=C(N)O2 (centres unmarked) [Compound 2.555],EC50,< 10 nM
Cc1n[nH]c2c1C(c1cc(C#N)cc(-c3ccc(Cl)c(C(=O)O)c3)c1)(C1CCC1)C(C#N)=C(N)O2 (centres unmarked) [Compound 2.556],EC50,< 10 nM
Cc1n[nH]c2c1C(c1cc(Cl)cc(-c3ccc(Cl)c(C(=O)O)c3)c1)(C1CCC1)C(C#N)=C(N)O2 (centres unmarked) [Compound 2.557],EC50,< 10 nM
Cc1n[nH]c2c1C(c1cc(C#N)cc(-c3ccc(F)c(C(=O)O)c3)c1)(C1CCC1)C(C#N)=C(N)O2 (centres unmarked) [Compound 2.558],EC50,< 10 nM
Cc1n[nH]c2c1C(c1cc(C#N)cc(-c3cc(Cl)cc(C(=O)O)c3)c1)(C1CCC1)C(C#N)=C(N)O2 (centres unmarked) [Compound 2.559],EC50,< 100 nM
Cc1n[nH]c2c1C(c1cc(C#N)cc(-c3ccc(C(=O)O)c(F)c3)c1)(C1CCC1)C(C#N)=C(N)O2 (centres unmarked) [Compound 2.560],EC50,< 10 nM
COc1cc(-c2cc(C#N)cc(C3(C4CCC4)C(C#N)=C(N)Oc4[nH]nc(C)c43)c2)ccc1C(=O)O (centres unmarked) [Compound 2.561],EC50,< 10 nM
Cc1n[nH]c2c1C(c1cc(C#N)cc(-c3ccc(C(=O)O)c(Cl)c3)c1)(C1CCC1)C(C#N)=C(N)O2 (centres unmarked) [Compound 2.562],EC50,< 10 nM
COc1cc(C(=O)O)cc(-c2cc(C#N)cc(C3(C4CCC4)C(C#N)=C(N)Oc4[nH]nc(C)c43)c2)c1 (centres unmarked) [Compound 2.563],EC50,< 10 nM
Cc1n[nH]c2c1C(c1cc(C#N)cc(-c3cc(C(=O)O)cc(C(=O)O)c3)c1)(C1CCC1)C(C#N)=C(N)O2 (centres unmarked) [Compound 2.564],EC50,< 1000 nM
Cc1n[nH]c2c1C(c1cc(C#N)cc(-c3ccc(C(=O)O)c(C(=O)O)c3)c1)(C1CCC1)C(C#N)=C(N)O2 (centres unmarked) [Compound 2.565],EC50,< 10 nM
Cc1n[nH]c2c1C(c1cc(C#N)cc(-c3cc(C(=O)O)cc([N+](=O)[O-])c3)c1)(C1CCC1)C(C#N)=C(N)O2 (centres unmarked) [Compound 2.566],EC50,< 10 nM
